Laboratory results published in patent US4288597A, “1,2-Diacylamino-1,2-di(4-pyridyl)ethanes and process for producing thereof” (Laboratorios Made, S.A., priority 1979, dated 1981).

How the values were obtained:
[1] = Acute toxicity, lethal dose 50 (Litchfield-Wilcoxon), intraperitoneal; details: mouse, in vivo, ip, mice, deaths recorded three days after administration
Protocol: (§1) The object of the studies carried out on all the products was to calculate the acute toxicity, expressed in the form of lethal dose 50, and to evaluate the analgesic effect by administering the drugs orally and intraperitoneally.
Tests were carried out on I.C.R. Swiss albino mice of both sexes weighing between 20 and 35 grams. The products were administered intraperitoneally,recording the number of dead animals three days after administration of the drugs. The statistical method used for the calculation of lethal dose 50 was the Litchfield-Wilcoxon method.

[2] = Analgesic effect by oral route (Siegmund technique modified by Koster, 1% acetic acid irritant); type: in vivo; details: products 5 mg/kg, dextropropoxyphene = 1
Protocol: as §1
(§2) The analgesic effect was evaluated according to the technique of Siegmund et al. (Proc. Soc. Exp. Biol. Med. 95, 729, 1957) modified by Koster et al. (Fed. Proc. 18, 412, 1957), a chemical analgesia test which uses 1% acetic acid as an irritant. The drugs under study were administered at the dose of 1 mg/kg and the reference drug at 25 mg/kg. The evaluation was made 30 minutes after the administrations. The results are given in Table B-1, expressing the results in the form of relative potency (F), giving dextropropoxyphene value 1. [formula]
2. ACTIVITY BY ORAL ROUTE
The foregoing procedure was used, with the difference that the dose of the products under study was 5 mg/kg.

[3] = Analgesic effect by intraperitoneal route (Siegmund technique modified by Koster, 1% acetic acid irritant); type: in vivo; details: products 1 mg/kg, reference 25 mg/kg, 30 minutes after administration, dextropropoxyphene = 1
Protocol: There is a series of 19 products, with analgesic activity, the effects whereof were tested using dextropropoxyphene as a reference drug.
as §1
1. ACTIVITY BY INTRAPERITONEAL ROUTE
as §2

Row | SMILES | LD50 at 72 h [1] [mg/kg] | Analgesic effect by oral route, relative potency F [2] | Analgesic effect by intraperitoneal route, relative potency F [3]
1 | CCC(=O)O[C@](Cc1ccccc1)(c1ccccc1)[C@H](C)CN(C)C [Dextropropoxyphene, dextropropoxyphene, reference compound] | 140 | – | –
2 | CC(=O)NC(c1ccncc1)C(NC(C)=O)c1ccncc1 (stereo not shown) [Example 1] | 1120 | 0.85 | 1.01
3 | CCCC(CCC)C(=O)NC(c1ccncc1)C(NC(=O)C(CCC)CCC)c1ccncc1 (stereo not shown) [Example 2] | > 1600 | 0.95 | 1.43
4 | O=C(NC(c1ccncc1)C(NC(=O)c1ccccc1)c1ccncc1)c1ccccc1 (stereo not shown) [Example 3] | > 1300 | 1.35 | 1.21
5 | Cc1ccc(C(=O)NC(c2ccncc2)C(NC(=O)c2ccc(C)cc2)c2ccncc2)cc1 (stereo not shown) [Example 4] | > 1660 | 1.11 | 1.04
6 | Cc1cccc(C(=O)NC(c2ccncc2)C(NC(=O)c2cccc(C)c2)c2ccncc2)c1 (stereo not shown) [Example 5] | > 1400 | 1.64 | 1.85
7 | Cc1ccccc1C(=O)NC(c1ccncc1)C(NC(=O)c1ccccc1C)c1ccncc1 (stereo not shown) [Example 6] | > 1600 | 1.67 | 1.09
8 | Cc1cc(C)cc(C(=O)NC(c2ccncc2)C(NC(=O)c2cc(C)cc(C)c2)c2ccncc2)c1 (stereo not shown) [Example 7] | > 1600 | 1.17 | 1.53
9 | O=C(NC(c1ccncc1)C(NC(=O)c1ccc(Cl)cc1)c1ccncc1)c1ccc(Cl)cc1 (stereo not shown) [Example 8] | > 1600 | 1.29 | 1.58
10 | O=C(NC(c1ccncc1)C(NC(=O)c1cccc(Cl)c1)c1ccncc1)c1cccc(Cl)c1 (stereo not shown) [Example 9] | > 1300 | 1.05 | 1.08
11 | O=C(NC(c1ccncc1)C(NC(=O)c1ccccc1Cl)c1ccncc1)c1ccccc1Cl (stereo not shown) [Example 10] | 1060 | 1.34 | 1.37
12 | O=C(NC(c1ccncc1)C(NC(=O)c1cc(Cl)cc(Cl)c1)c1ccncc1)c1cc(Cl)cc(Cl)c1 (stereo not shown) [Example 11] | > 1200 | 1.22 | 0.84
13 | O=C(NC(c1ccncc1)C(NC(=O)c1ccc(F)cc1)c1ccncc1)c1ccc(F)cc1 (stereo not shown) [Example 12] | 1110 | 0.81 | 1.17
14 | O=C(NC(c1ccncc1)C(NC(=O)c1ccc(C(F)(F)F)cc1)c1ccncc1)c1ccc(C(F)(F)F)cc1 (stereo not shown) [Example 13] | > 1200 | 1.19 | 1.38
15 | COc1ccc(C(=O)NC(c2ccncc2)C(NC(=O)c2ccc(OC)cc2)c2ccncc2)cc1 (stereo not shown) [Example 14] | > 1600 | 1.23 | 1.09
16 | CS(=O)(=O)c1ccc(C(=O)NC(c2ccncc2)C(NC(=O)c2ccc(S(C)(=O)=O)cc2)c2ccncc2)cc1 (stereo not shown) [Example 15] | > 2000 | 1.05 | 1.43
17 | O=C(NC(c1ccncc1)C(NC(=O)c1ccc([N+](=O)[O-])cc1)c1ccncc1)c1ccc([N+](=O)[O-])cc1 (stereo not shown) [Example 16] | > 1600 | 1.25 | 1.38
18 | CC(C)(C)c1ccc(C(=O)NC(c2ccncc2)C(NC(=O)c2ccc(C(C)(C)C)cc2)c2ccncc2)cc1 (stereo not shown) [Example 17] | > 1600 | 1.17 | 1.11
19 | O=C(Cc1ccccc1)NC(c1ccncc1)C(NC(=O)Cc1ccccc1)c1ccncc1 (stereo not shown) [Example 18] | 1540 | 2.13 | 0.96
20 | O=C(NC(c1ccncc1)C(NC(=O)c1ccc(-c2ccccc2)cc1)c1ccncc1)c1ccc(-c2ccccc2)cc1 (stereo not shown) [Example 19] | > 1600 | 1.13 | 1.08
